Patent US9486461B2, “Methods and compositions for inducing apoptosis by stimulating ER stress” (UNIVERSITY OF SOUTHERN CALIFORNIA, priority 2007, dated 2016)

What was measured:
[1] = test system: polyubiquitinated proteins in U251 cells; assay: Western blot of polyubiquitinated proteins, U251; type: cell-based, human; conditions: U251, increasing concentrations, 24 hours
Method: Total cell lysates were analyzed by Western blot with specific antibodies to ubiquitin, GRP78, CHOP, and caspase 4. Actin was used as a loading control. […] Note that in the caspase 4 blots several non-specific background bands were observed (consistent with similar observations in the literature); the specific bands were identified with the use of various controls (not shown) and comparison to the literature.
(§1) Total cell lysates were prepared and analyzed by Western blot analysis as described earlier (19). Immunohistochemical analysis of protein expression in tumor tissues was performed with the use of the Vectastain avidin-biotin complex method kit (Vector Laboratories) as described previously (32). The primary antibodies were purchased from Cell Signaling Technology or Santa Cruz Biotechnology, Inc. and used according to the manufacturers' recommendations. All immunoblots and stainings were repeated at least once to confirm the results.

[2] = test system: U87MG glioblastoma cell line; assay: MTT assay, U87MG; type: cell-based; conditions: Homo sapiens, U-87 MG, 48 h, read-out: IC50 (50% inhibition of cell growth)
Method: (§2) For comparison purposes to the known anti-multiple myeloma effects of bortezomib, the RPMI/8226 multiple myeloma cell line was included in (A).
(§3) 3-(4,5-Dimethylthiazol-2-yl)-2,5-diphenyltetrazolium bromide (MTT) assays were performed in 96-well plates with the use of 3.0×10^3 to 8.0×10^3 cells per well as described in detail elsewhere (19).

[3] = test system: LN229 glioblastoma cell line; assay: MTT assay, LN229; type: cell-based, human; conditions: Homo sapiens, LN-229, LN229, 48 h, read-out: IC50 (50% inhibition of cell growth)
Method: as §2, §3

[4] = test system: CHOP, GRP78, caspase 4 in U251 glioblastoma cells; assay: Western blot of ER stress indicators in U251 cells; type: cell-based, human; conditions: U251, increasing concentrations, 24 hours
Method: U251 glioblastoma cells were cultured in the presence of 1 μM thapsigargin (Tg) or 60 μM DMC for various times, as indicated. Total cell lysates were prepared and analyzed by Western blot with specific antibodies to the ER stress proteins GRP78, CHOP, and caspase 4 (Casp 4). Actin was used as a loading control.
Shown are (A) time kinetics at 50 μM of each drug, and (B) concentration dependence after 15 hours of incubation.
Shown are (FIG. 7A) time kinetics at 50 μM of each drug, and (FIG. 7B), concentration dependence after 15 hours of incubation.
U251 glioblastoma cells were cultured for 24 hours in the presence of increasing concentrations of (A) bortezomib (BZM) or (B) DMC. Total cell lysates were analyzed by Western blot with specific antibodies to ubiquitin, GRP78, CHOP, and caspase 4. Actin was used as a loading control.
Total cell lysates were prepared by lysis of cells with radioimmunoprecipitation assay buffer (28), and protein concentrations were determined using the bicinchoninic acid protein assay reagent (Pierce, Rockford, Ill.). For Western blot analysis, 50 Ag of each sample were processed as described (29). The primary antibodies were purchased from Cell Signaling Technologies (Beverly, Mass.), Cayman Chemical (Ann Arbor, Mich.), or Santa Cruz Biotechnology, Inc. (Santa Cruz, Calif.) and used according to the manufacturer's recommendations. The secondary antibodies were coupled to horseradish peroxidase and detected by chemiluminescence using the SuperSignal West substrate from Pierce. All immunoblots were repeated at least once to confirm the results.
as §1

LN229 cells = assay: Colony formation assay, LN229; type: cell-based, human; conditions: LN229: 5 nM BZM, 60 μM CXB, 40 μM DMC, alone or combined; 48 hours, colonies two weeks thereafter
Method: Representative sections are shown. (B) Quantitative analysis of combination drug effects. […] Cell viability was determined by trypan blue exclusion assay.
The different small interfering RNAs (siRNA) were synthesized at the microchemical core laboratory of the University of Southern California/Norris Comprehensive Cancer Center; their sequences are described in ref. 32. Transfections of cells with these siRNAs and subsequent analysis of cell survival by colony formation assay have been described in detail elsewhere (32).

[5] = test system: T98G glioblastoma cell line; assay: MTT assay, T98G; type: cell-based; conditions: Homo sapiens, 48 h, read-out: IC50 (50% inhibition of cell growth)
Method: as §2, §3

[6] = test system: CHOP protein in U87 glioblastoma tumor tissue; assay: Immunohistochemical staining for CHOP in xenograft tumor tissue; type: in vivo, nude mice; conditions: U87MG xenograft, 1 mg/kg BZM and 7.5 mg/kg DMC individually or in combination, 50 h
Source text: In all cases, representative sections are shown.
Immunohistochemical analysis of protein expression in tumor tissues was done with the use of the Vectastain avidin-biotin complex method kit (Vector Laboratories, Burlingame, Calif.) according to the manufacturer's instructions. This procedure uses biotinylated secondary antibodies and a preformed avidin: biotinylated enzyme complex that has been termed the avidin-biotin complex method technique. As the primary antibody, we used anti-CHOP antibody (Santa Cruz Biotechnology) diluted 1:100 in 2% normal goat blocking serum.

U251 glioblastoma cells = assay: MTT assay, U251; type: cell-based, human; conditions: Homo sapiens, U-251; U251, 48 h, MTT; read-out: IC50 (50% inhibition of cell growth)
Method: U251 glioblastoma cells were treated with different drugs, and various parameters of cell growth and cell death were comparatively analyzed. As controls, cells remained either non-treated (Co) or were treated with the solvent DMSO alone. (FIG. 8A) Cells were treated with 30 or 50 μM DMC for 48 hours and the effects on cell growth/survival and on cell death were determined by various assays. […] Below the three panels, the expression levels of the ER stress indicators CHOP, GRP78, and caspase 4 at the end of the 48 hour drug treatment is shown, as determined by Western blot analysis with specific antibodies (actin served as a loading control. (FIG. 8B) Cells were treated with various concentrations of different drugs for 48 hours, as indicated, and cell death was measured with the cell death ELISA kit. (FIG. 8C) Cells were treated with DMC or various coxibs and traditional NSAIDs for 48 hours, as indicated, and cell growth and survival was determined with the conventional MTT assay (control, non-treated cells were set at 100%). MTT assays were performed in 96-well plates with the use of 3.0-8.0×10^3 cells per well as described in detail elsewhere (34). In parallel, the expression levels of CHOP and GRP78 protein were determined by Western blot analysis. […]
as §3

[7] = test system: RPMI/8226 multiple myeloma cell line; assay: MTT assay, RPMI/8226; type: cell-based; conditions: RPMI/8226, 48 h, not more sensitive than the glioblastoma cell lines
Method: as §2, §3

U87 glioblastoma tumors = assay: TUNEL assay of xenograft tumor tissue; conditions: U87MG xenograft, 1 mg/kg BZM and 7.5 mg/kg DMC individually or in combination, 50 h

- IC50 [2]: ~10 nM
- IC50 [3]: < 5 nM
- IC50 [5]: ~10 nM
- IC50 (U251 glioblastoma cells): ~10 nM
Structure (SMILES): CC(C)C[C@H](NC(=O)[C@H](Cc1ccccc1)NC(=O)c1cnccn1)B(O)O [bortezomib]
- accumulation of polyubiquitinated proteins [1]: highly elevated levels of polyubiquitinated proteins
- expression of GRP78 and CHOP [4]: increased expression of GRP78 and CHOP
- reduction of colony number (LN229 cells): ~50%
- CHOP expression in tumor tissue [6]: larger fraction of CHOP-positive cells
- sensitivity of RPMI/8226 cells [7]: high sensitivity
- TUNEL staining of tumor tissue (U87 glioblastoma tumors): increased TUNEL staining
